Where no end group is shown, it is not given here.

We go through ten molecules from publication PMC11857530, “Antioxidant Peptides from Miiuy Croaker Swim Bladders: Ameliorating Effect and Mechanism in NAFLD Cell Model through Regulation of Hypolipidemic and Antioxidant Capacity” (Marine Drugs, 2025).

For series [1], the system named is AMP-activated protein kinase (AMPK) pathway. The conditions noted are these: via AMPK pathway; ref [58],[61]; cited from earlier work. The source says:
(§1) Modern unhealthy lifestyles, especially a HFD and lack of exercise, lead to the large accumulation of lipids in the human body, and the excess FFAs overloaded in the body are transferred from the bloodstream to the liver. If the rate of lipid oxidation is far slower than the synthesis rate, the large amounts of lipids accumulated in the liver will result in lipid metabolism disorder, steatosis, and ultimately the development of NAFLD [4, 58].

In series [2] the test system is HepG2 cells. Briefly: MTT viability of HepG2 cells. It is filed as cell-based, human. The conditions noted are these: 100 μM, 24 h. The method, then:
HepG2 human hepatoma cell line was purchased from Shanghai Cell Bank, Chinese Academy of Sciences. HepG2 cells were cultured in DMEM containing […] streptomycin, 50 U/mL penicillin, 2 mM glutamine, and 10% FCS in a humidified atmosphere of 5% CO2 at 37 °C.
The viability of the HepG2 cells was evaluated using the MTT assay via a previous method. In brief, S7 and S10 were dissolved in growth medium to form a peptide solution with a concentration of 200 μM. Then, the peptide solution was added to the growth medium of HepG2 cells with final concentrations of 10, 50, and 100 μM, and the cells were incubated for 24 h with peptide administration. The control group was treated with the growth medium without peptides. SV (1.0 mM) was used as a positive control.

In series [3] the test system is liver dysfunction caused by hyperglycemia. Particulars: ref [29]; cited from earlier work. The source says:
(§2) Bioactive peptides (BPs) have been produced from diverse plant and animal proteins, such as mammals, poultry, beans, mollusks, fish, Antarctic krill, algae, etc. Beyond their important nutritional benefits, BPs show remarkable bioactivity and pharmacological functions, with numerous potential applications for human health. […] For example, GINY and DQW from α-lactalbum ...

Series [4] concerns OA-induced HepG2 cells. Briefly: Intracellular ROS level (DCFH-DA), OA-induced NAFLD cell model. The class given is cell-based, human. Particulars: pretreated, compared to model group; concentration not given. How it is done: The OA-induced NAFLD cell model was established according to previous methods. HepG2 cells in the logarithmic growth phase were seeded into 96-well plates and cultivated in a humidified atmosphere of 5% CO2 at 37 °C for 24 h. OA was dissolved in 10% BSA and added to the DMEM with a final concentration of 80 μM. After this, the cells were cultured for 24 h, and the morphologies of the HepG2 cells were observed and photographed using a microscope. The HepG2 cells in the control wells were cultured for 24 h in DMEM without OA.
The ROS level was determined by the dichlorodihydrofluorescein diacetate (DCFH-DA) staining method. Briefly, HepG2 cells were seeded in 12-well plates and DCFH-DA was diluted to a final concentration of 10 μM at a ratio of 1:1000. Next, after the removal of the cell culture medium, the cells were washed three times with PBS. After this, the HepG2 cells were incubated with 10 μM DCFH-DA for 30 min at 37 °C. After washing with PBS three times again, the fluorescence of the HepG2 cells was monitored at 485 nm excitation (535 nm emission). Finally, images were acquired using a fluorescence microscope to observe the fluorescence intensity of DCFH-DA.

For series [5], the system named is FFA-damaged HepG2 cells. The conditions noted are these: regulating PERK/eIF2α and PERK/IκBα pathways; ref [28]; cited from earlier work.
Source text: as §2

Series [6] deals with PPARα pathway. The conditions noted are these: activating PPARα pathway; ref [26],[27]; cited from earlier work.
Source text: as §2

For series [7], the target named is T1, pancreatic lipase (PL) (Sus scrofa, UniProt P00591).
T1 construct: purchased Solarbio Life Sciences Co., Ltd. (Beijing, China)
T1 sequence (P00591 1-450): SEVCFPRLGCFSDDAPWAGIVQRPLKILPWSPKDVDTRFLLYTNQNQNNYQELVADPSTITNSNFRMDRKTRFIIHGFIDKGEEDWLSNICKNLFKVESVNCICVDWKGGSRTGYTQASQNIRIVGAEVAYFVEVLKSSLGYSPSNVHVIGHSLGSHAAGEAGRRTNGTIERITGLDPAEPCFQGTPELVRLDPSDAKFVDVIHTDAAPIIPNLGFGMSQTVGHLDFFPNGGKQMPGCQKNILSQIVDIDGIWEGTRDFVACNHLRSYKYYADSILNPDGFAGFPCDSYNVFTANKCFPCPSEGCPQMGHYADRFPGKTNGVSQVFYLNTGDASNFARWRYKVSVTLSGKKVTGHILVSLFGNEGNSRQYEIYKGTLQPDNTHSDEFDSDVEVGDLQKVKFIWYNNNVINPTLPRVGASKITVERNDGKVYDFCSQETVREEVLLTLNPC
Briefly: Pancreatic lipase (PL) inhibitory activity. The conditions noted are these: PNPB substrate, 15 min pre-incubation, 20 min, 37 °C; absorbance 405 nm. It is filed as biochemical.
Procedure: Sodium taurocholate, pancreatic lipase, cholesterol esterase, and Tris buffer solution were purchased from Solarbio Life Sciences Co., Ltd. (Beijing, China). […] P-nitrophenyl butyrate (PNPB) was purchased from Shanghai Macleans Biochemical Co., Ltd. (Shanghai, China).
The in vitro pancreatic lipase (PL) inhibitory activity was measured using the method of Cai et al. [78], with slight modifications. Pancreatic lipase was first dissolved in 100 mM Tris buffer (2 mg/mL) and the supernatant was obtained by centrifugation. Tris buffer was then prepared as 0.1% (w/v) PNPB solution. The 50 μL peptide sample was incubated with 50 μL Tris buffer solution and 50 μL pancreatic lipase solution at 37 °C for 15 min, and then 100 μL PNPB solution was added. After 20 min at 37 °C, the absorbance value was measured at 405 nm. In the blank group, pure water was used instead of a sample. In the blank control group, the samples were replaced with pure water and the pancreatic lipase solution was replaced with a buffer solution. […] The pancreatic lipase (PL) inhibitory rate was calculated using the following formula:PL inhibitory rate (%) = [1 − (A − A0)/(B − B0)] × 100%(2) where A, A0, B, and B0 are the absorbance values determined at 405 nm of the sample, the sample control, the blank, and the blank control after the reaction, respectively.

Series [8] has as its system LXRα/SREBPs/HMGR pathway. The conditions noted are these: via LXRα/SREBPs/HMGR pathway; ref [59],[60]; cited from earlier work.
Source text: as §1

Turning to “VIAPW [antioxidant peptide from Miichthys miiuy muscle]”, the “TG and TC content” value in series [1] is “decrease the content of TG and TC”.
As to “VPDDD [S9, antioxidant peptide separated from swim bladder hydrolysate of the miiuy croaker]”, in series [2], the “Viability of HepG2 cells vs control” value is “remarkably lower than that of the control (p < 0.05)”.
On to VHVV [A tetrapeptide (VHVV) from soy], for which the “Effect on liver dysfunction” value in series [3] is recorded as “strong preventive effect on liver dysfunction caused by hyperglycemia”.
For `CC(=O)N[C@@H](CS)C(=O)O` [NAC], in series [4], the “ROS fluorescence intensity” value was “showed varying degrees of decrease compared to the model group”.
Take “VLATSGPG [VLATSGPG (VLA), peptide from salmon skins]”: the “Lipid content and inflammation” value in series [5] is “decrease the lipid content and inflammation”.
GINY [peptide from α-lactalbumin]: the “Alleviation of NAFLD” value in series [6] is “decrease lipid deposition and oxidative stress”.
Consider GIEWA [S10], for which inhibition in series [7] was half-maximal at 1.29 mM (IC50).
“VFVRN [derived from chickpea protein hydrolysate]”: in series [8], the “Hypolipidemic activity” value is “strong hypolipidemic activity”.
In series [7], FSGLR [S7] gave an IC50 of 1.67 mM.
Take “IRWWW [antioxidant peptide from Miichthys miiuy muscle]”: the “TG and TC content” value in series [1] is “decrease the content of TG and TC”.

By IC50 is commonly meant the concentration needed to halve the response being measured. A lower IC50 goes with greater potency.
